From US20250034212A1, “PEPTIDE” (PEPTIDREAM INC., priority 2021, published 2025)
Starred links: 1 amine or outer side, 2 acyl side, 3 side chain; linkers in the order of their positions; H or OH if unused. Positions of bridges follow the written chain, without caps; N, C: chain ends. Non-standard residues stand in square brackets, D forms with d. Residues, ends and D or L forms follow the SMILES beside them. Groups on a side chain read outwards from the residue. *: point of attachment. Meglumine = CN(C[C@H](O)[C@@H](O)[C@H](O)[C@H](O)CO)*; Trp(6-aza) = N[C@@H](Cc1c[nH]c2cnccc12)C(=O)O; Trp(7-aza) = N[C@@H](Cc1c[nH]c2ncccc12)C(=O)O; Piperazinyl(4-CH2COOH) = O=C(O)CN1CCN(*)CC1; 1Nal = N[C@@H](Cc1cccc2ccccc12)C(=O)O; Gly(NCH2CH2Ph) = O=C(O)CNCCc1ccccc1; 4Pal = N[C@@H](Cc1ccncc1)C(=O)O; CO = O=C([*:1])[*:2]

Molecular target: T1, recombinant human TGF-β1 (Homo sapiens, UniProt P01137)
T1 construct: purchased R&D systems
T1 sequence (P01137 279-390 limits assumed): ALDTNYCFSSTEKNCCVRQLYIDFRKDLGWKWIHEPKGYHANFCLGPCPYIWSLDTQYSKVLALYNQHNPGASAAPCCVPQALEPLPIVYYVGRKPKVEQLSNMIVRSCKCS
Experiment: SBE reporter assay in SBE reporter-HEK293 cells, TGF-β1 stimulation
Format: cell-based
Details: TGF-β1 0.13 nM, 18 hours; for inhibition at 75 pM: peptide 0.075 nM; for inhibition at 0.00075 µM: peptide 0.75 nM; for inhibition at 0.0075 µM: peptide 7.5 nM; for inhibition at 0.075 µM: peptide 75.0 nM
Description: The inhibitory activity of the peptide can be calculated without limitation while the maximum signal induced by TGF-β is set to 0% inhibition and no stimulation is set to 100% inhibition. When the peptide is used at an appropriate concentration, for example, at the optimal concentration, the inhibitory activity is not limited but the inhibition is 5% or more, 10% or more, 20% or more, 30% or more, 40% or more, 50% or more, 60% or more, 70% or more, 80% or more, or 90% or more.
In this Example, the TGF-β1 inhibitory activity of the peptide of the present invention consisting of the amino acid sequence set forth in SEQ ID NOs: 2-33 synthesized in Examples 1 to 5 and 7 was evaluated by an SBE reporter assay using the SBE reporter-HEK293 cell system (BP Bioscience) as follows.
SBE reporter-HEK293 cells were cultured in E-MEM (Wako) containing 10% FBS (Sigma). The cells were detached using Accutase (Innovative Cell Technologies), suspended in E-MEM containing 0.5% FBS, seeded onto a 96-well plate(s) at a concentration of 45,000 cells per well, and cultured overnight. The next day, the peptide was added and allowed to stand for 20 min, and recombinant human TGF-β1 (R&D systems) or recombinant human TGF-β2 (R&D systems) was then added at 0.13 nM and cultured for 18 hours.
Thereafter, luciferase assay ONE-Glo reagent was added to each well and the plate was shaken for 5 min. A SpectraMax Paradigm multimode microplate reader (Molecular Devices) was then used for signal detection. The obtained signals were analyzed by GraphPad Prism. The inhibitory activity of the peptide was calculated while the maximum signal induced by TGF-β was set to 0% inhibition and no stimulation was set to 100% inhibition.

CC(C)[C@@H]1NC(=O)CN(CCc2ccccc2)C(=O)[C@H](CC(=O)O)NC(=O)[C@H](CC(=O)O)NC(=O)[C@H](Cc2ccc(O)cc2)NC(=O)[C@H](C(C)C)NC(=O)[C@H](CC(N)=O)NC(=O)[C@H](C(C)C)NC(=O)[C@H](C(C)C)NC(=O)[C@H](Cc2c[nH]c3ccccc23)NC(=O)[C@H](Cc2ccccc2)NC(=O)CSC[C@@H](C(=O)NCC(N)=O)NC(=O)[C@H](C(C)C)NC(=O)[C@H](Cc2c[nH]cn2)NC(=O)[C@H](Cc2ccc(O)cc2)NC(=O)[C@H](Cc2cccc3ccccc23)NC1=O [TGFb1_003] ({CH2CO}-FWVVNVYDD[Gly(NCH2CH2Ph)]V[1Nal]YHVCG-NH2; thioether N-16)
inhibition at 75 pM: 1.6% | inhibition at 0.00075 µM: 65.2% | inhibition at 0.0075 µM: 97.3% | inhibition at 0.075 µM: 98.8%

CC(C)[C@@H]1NC(=O)CN(CCc2ccccc2)C(=O)[C@H](CC(=O)O)NC(=O)[C@H](CC(=O)O)NC(=O)[C@H](Cc2ccc(O)cc2)NC(=O)[C@H](C(C)C)NC(=O)[C@H](CC(N)=O)NC(=O)[C@H](C(C)C)NC(=O)[C@H](C(C)C)NC(=O)[C@H](Cc2c[nH]c3cnccc23)NC(=O)[C@H](Cc2ccccc2)NC(=O)CSC[C@@H](C(=O)NCC(N)=O)NC(=O)[C@H](C(C)C)NC(=O)[C@H](Cc2c[nH]cn2)NC(=O)[C@H](Cc2ccc(O)cc2)NC(=O)[C@H](Cc2cccc3ccccc23)NC1=O [TGFb1_004] ({CH2CO}-F[Trp(6-aza)]VVNVYDD[Gly(NCH2CH2Ph)]V[1Nal]YHVCG-NH2; thioether N-16)
inhibition at 75 pM: 0% | inhibition at 0.00075 µM: 0.9% | inhibition at 0.0075 µM: 70.1% | inhibition at 0.075 µM: 94.9%

CC(C)[C@@H]1NC(=O)CN(CCc2ccccc2)C(=O)[C@H](CC(=O)O)NC(=O)[C@H](CC(=O)O)NC(=O)[C@H](Cc2ccc(O)cc2)NC(=O)[C@H](C(C)C)NC(=O)[C@H](CC(N)=O)NC(=O)[C@H](C(C)C)NC(=O)[C@H](C(C)C)NC(=O)[C@H](Cc2c[nH]c3ncccc23)NC(=O)[C@H](Cc2ccccc2)NC(=O)CSC[C@@H](C(=O)NCC(N)=O)NC(=O)[C@H](C(C)C)NC(=O)[C@H](Cc2c[nH]cn2)NC(=O)[C@H](Cc2ccc(O)cc2)NC(=O)[C@H](Cc2cccc3ccccc23)NC1=O [TGFb1_005] ({CH2CO}-F[Trp(7-aza)]VVNVYDD[Gly(NCH2CH2Ph)]V[1Nal]YHVCG-NH2; thioether N-16)
inhibition at 75 pM: 0.4% | inhibition at 0.00075 µM: 47% | inhibition at 0.0075 µM: 90.8% | inhibition at 0.075 µM: 98.9%

CC(C)[C@@H]1NC(=O)CN(CCc2ccccc2)C(=O)[C@H](CC(=O)O)NC(=O)[C@H](CC(=O)O)NC(=O)[C@H](Cc2ccncc2)NC(=O)[C@H](C(C)C)NC(=O)[C@H](CC(N)=O)NC(=O)[C@H](CCCCN)NC(=O)[C@H](C(C)C)NC(=O)[C@H](Cc2cccc3ccccc23)NC(=O)[C@H](Cc2ccccc2)NC(=O)CSC[C@@H](C(=O)NCC(N)=O)NC(=O)[C@H](C(C)C)NC(=O)[C@H](Cc2c[nH]cn2)NC(=O)[C@H](Cc2ccc(O)cc2)NC(=O)[C@H](Cc2cccc3ccccc23)NC1=O [TGFb1_007] ({CH2CO}-F[1Nal]VKNV[4Pal]DD[Gly(NCH2CH2Ph)]V[1Nal]YHVCG-NH2; thioether N-16)
inhibition at 75 pM: 0.1% | inhibition at 0.00075 µM: 37.5% | inhibition at 0.0075 µM: 83.5% | inhibition at 0.075 µM: 96.7%

CC(C)[C@@H]1NC(=O)CN(CCc2ccccc2)C(=O)[C@H](CC(=O)O)NC(=O)[C@H](CC(=O)O)NC(=O)[C@H](Cc2ccncc2)NC(=O)[C@H](C(C)C)NC(=O)[C@H](CC(N)=O)NC(=O)[C@H](C(C)C)NC(=O)[C@H](C(C)C)NC(=O)[C@H](Cc2c[nH]c3ncccc23)NC(=O)[C@H](Cc2ccccc2)NC(=O)CSC[C@@H](C(=O)NCC(N)=O)NC(=O)[C@H](C(C)C)NC(=O)[C@H](Cc2c[nH]cn2)NC(=O)[C@H](Cc2ccc(O)cc2)NC(=O)[C@H](Cc2cccc3ccccc23)NC1=O [TGFb1_008] ({CH2CO}-F[Trp(7-aza)]VVNV[4Pal]DD[Gly(NCH2CH2Ph)]V[1Nal]YHVCG-NH2; thioether N-16)
inhibition at 75 pM: 3.8% | inhibition at 0.00075 µM: 56.8% | inhibition at 0.0075 µM: 94.6% | inhibition at 0.075 µM: 98.4%

CC(C)[C@@H]1NC(=O)CN(CCc2ccccc2)C(=O)[C@H](CC(=O)O)NC(=O)[C@H](CC(=O)O)NC(=O)[C@H](Cc2ccncc2)NC(=O)[C@H](C(C)C)NC(=O)[C@H](CC(N)=O)NC(=O)[C@H](C(C)C)NC(=O)[C@H](C(C)C)NC(=O)[C@H](Cc2cccc3ccccc23)NC(=O)[C@H](Cc2ccccc2)NC(=O)CSC[C@@H](C(=O)NCC(N)=O)NC(=O)[C@H](C(C)C)NC(=O)[C@H](Cc2c[nH]cn2)NC(=O)[C@H](Cc2ccncc2)NC(=O)[C@H](Cc2cccc3ccccc23)NC1=O [TGFb1_009] ({CH2CO}-F[1Nal]VVNV[4Pal]DD[Gly(NCH2CH2Ph)]V[1Nal][4Pal]HVCG-NH2; thioether N-16)
inhibition at 75 pM: 2.7% | inhibition at 0.00075 µM: 53% | inhibition at 0.0075 µM: 94.8% | inhibition at 0.075 µM: 99.6%

CC(C)[C@@H]1NC(=O)CN(CCc2ccccc2)C(=O)[C@H](CC(=O)O)NC(=O)[C@H](CC(=O)O)NC(=O)[C@H](Cc2ccncc2)NC(=O)[C@H](C(C)C)NC(=O)[C@H](CC(N)=O)NC(=O)[C@H](CCCCNC(=O)N2CCN(CC(=O)O)CC2)NC(=O)[C@H](C(C)C)NC(=O)[C@H](Cc2cccc3ccccc23)NC(=O)[C@H](Cc2ccccc2)NC(=O)CSC[C@@H](C(=O)NCC(N)=O)NC(=O)[C@H](C(C)C)NC(=O)[C@H](Cc2c[nH]cn2)NC(=O)[C@H](Cc2ccc(O)cc2)NC(=O)[C@H](Cc2cccc3ccccc23)NC1=O [TGFb1_010] ({CH2CO}-F[1Nal]VK([CO-Piperazinyl(4-CH2COOH)])NV[4Pal]DD[Gly(NCH2CH2Ph)]V[1Nal]YHVCG-NH2; thioether N-16)
inhibition at 75 pM: 2% | inhibition at 0.00075 µM: 63.8% | inhibition at 0.0075 µM: 97.9% | inhibition at 0.075 µM: 99.9%

CC(C)[C@@H]1NC(=O)CN(CCc2ccccc2)C(=O)[C@H](CCCCNC(=O)N2CCN(CC(=O)O)CC2)NC(=O)[C@H](CC(=O)O)NC(=O)[C@H](Cc2ccncc2)NC(=O)[C@H](C(C)C)NC(=O)[C@H](CC(N)=O)NC(=O)[C@H](C(C)C)NC(=O)[C@H](C(C)C)NC(=O)[C@H](Cc2cccc3ccccc23)NC(=O)[C@H](Cc2ccccc2)NC(=O)CSC[C@@H](C(=O)NCC(N)=O)NC(=O)[C@H](C(C)C)NC(=O)[C@H](Cc2c[nH]cn2)NC(=O)[C@H](Cc2ccc(O)cc2)NC(=O)[C@H](Cc2cccc3ccccc23)NC1=O [TGFb1_011] ({CH2CO}-F[1Nal]VVNV[4Pal]DK([CO-Piperazinyl(4-CH2COOH)])[Gly(NCH2CH2Ph)]V[1Nal]YHVCG-NH2; thioether N-16)
inhibition at 75 pM: 6.1% | inhibition at 0.00075 µM: 76.3% | inhibition at 0.0075 µM: 97.9% | inhibition at 0.075 µM: 100%

CC(C)[C@@H]1NC(=O)CN(CCc2ccccc2)C(=O)[C@H](CC(=O)O)NC(=O)[C@H](CC(=O)O)NC(=O)[C@H](Cc2ccncc2)NC(=O)[C@H](C(C)C)NC(=O)[C@H](CC(N)=O)NC(=O)[C@H](CCCCNC(=O)N(C)C[C@H](O)[C@@H](O)[C@H](O)[C@H](O)CO)NC(=O)[C@H](C(C)C)NC(=O)[C@H](Cc2cccc3ccccc23)NC(=O)[C@H](Cc2ccccc2)NC(=O)CSC[C@@H](C(=O)NCC(N)=O)NC(=O)[C@H](C(C)C)NC(=O)[C@H](Cc2c[nH]cn2)NC(=O)[C@H](Cc2ccc(O)cc2)NC(=O)[C@H](Cc2cccc3ccccc23)NC1=O [TGFb1_014] ({CH2CO}-F[1Nal]VK([CO-Meglumine])NV[4Pal]DD[Gly(NCH2CH2Ph)]V[1Nal]YHVCG-NH2; thioether N-16)
inhibition at 75 pM: 0% | inhibition at 0.00075 µM: 64.8% | inhibition at 0.0075 µM: 97.2% | inhibition at 0.075 µM: 98.8%

CC(C)[C@@H]1NC(=O)CN(CCc2ccccc2)C(=O)[C@H](CCCCNC(=O)N(C)C[C@H](O)[C@@H](O)[C@H](O)[C@H](O)CO)NC(=O)[C@H](CC(=O)O)NC(=O)[C@H](Cc2ccncc2)NC(=O)[C@H](C(C)C)NC(=O)[C@H](CC(N)=O)NC(=O)[C@H](C(C)C)NC(=O)[C@H](C(C)C)NC(=O)[C@H](Cc2cccc3ccccc23)NC(=O)[C@H](Cc2ccccc2)NC(=O)CSC[C@@H](C(=O)NCC(N)=O)NC(=O)[C@H](C(C)C)NC(=O)[C@H](Cc2c[nH]cn2)NC(=O)[C@H](Cc2ccc(O)cc2)NC(=O)[C@H](Cc2cccc3ccccc23)NC1=O [TGFb1_015] ({CH2CO}-F[1Nal]VVNV[4Pal]DK([CO-Meglumine])[Gly(NCH2CH2Ph)]V[1Nal]YHVCG-NH2; thioether N-16)
inhibition at 75 pM: 0% | inhibition at 0.00075 µM: 76.9% | inhibition at 0.0075 µM: 98.7% | inhibition at 0.075 µM: 98.4%
